Measured values: US20260250318A1, “COMPOSITIONS AND METHODS FOR CROSSING THE BLOOD BRAIN BARRIER” (VOYAGER THERAPEUTICS, INC., priority 2022, published 2026)

What was measured:
Details in all cases: synthetic library passage 3, intravenous, relative to wild-type AAV9
[1] = tested on: brain; test: NGS fold enrichment of synthetic library (passage 3) in BALB/c mice, first cross-species screen; type: in vivo
Method in brief: (§1)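 Passage-3 synthetic capsid library given intravenously […] to NHPs (2-4 years) and BALB/c or C57Bl/6 mice (n=3, 6-8 weeks). After e.g. 28 days, tissue RNA was RT-PCR amplified and NGS-sequenced; values are fold enrichment of each variant relative to wild-type AAV9.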

[2] = tested on: brain, spinal cord, and DRG of the NHPs; test: NGS fold enrichment of synthetic library (passage 3) in NHPs, first cross-species screen; type: in vivo, cynomolgus macaques (Macaca fascicularis)
Method in brief: as §1

[3] = tested on: brain; test: NGS fold enrichment of synthetic library (passage 3) in C57Bl/6 mice, first cross-species screen; type: in vivo
Method in brief: as §1

[4] = RNA from brain of BALB/c mice, NGS
[5] = RNA from spinal cord of NHPs, NGS
[6] = RNA from brain of C57Bl/6 mice, NGS

Sequence	Fold enrichment over AAV9 in the brain of Mice (BALB/c) ([1]; RNA NGS, brain of BALB/c mice) [fold]	Fold enrichment over AAV9 in the brain of NHPs ([2]; RNA NGS, brain of NHPs) [fold]	Fold enrichment over AAV9 in the spinal cord of NHPs ([2]; RNA NGS, spinal cord of NHPs) [fold]	Fold enrichment over AAV9 in the brain of Mice (C57Bl/6) ([3]; RNA NGS, brain of C57Bl/6 mice) [fold]	Fold enrichment over AAV9 in the brain of Mice (BALB/c) [1, 4] [fold]	Fold enrichment over AAV9 in the brain of NHPs ([2]; RNA from brain of NHPs, NGS) [fold]	Fold enrichment over AAV9 in the spinal cord of NHPs [2, 5] [fold]	Fold enrichment over AAV9 in the brain of Mice (C57Bl/6) [3, 6] [fold]
GRVLHSHAGQNQQT	0.908	2.513	0.826	1.294	–	–	–	–
GSAAMSVRGQNQQT	0.287	1.029	2.386	0.202	–	–	–	–
GSAGISPSGQNQQT	0.622	1.797	1.812	0.784	–	–	–	–
GSAQVSMVGQNQQT	0.285	1.601	1.332	0.500	–	–	–	–
GSDFLGTHGQNQQT	0.750	3.171	0.348	1.038	–	–	–	–
GSDGKMHRGQNQQT	–	–	–	–	0.776	1.227	0.000	1.826
GSDHSHRGGQNQQT	–	–	–	–	0.331	1.174	0.504	0.818
GSDQNQQLGYSKQT	–	–	–	–	0.660	1.283	0.000	0.853
GSDQNQQTMSSTRT	0.835	1.003	2.428	1.306	–	–	–	–
GSDQNQRLTSSMQT	0.670	1.479	0.164	0.875	–	–	–	–
GSDQSKRGDSNQQT	–	–	–	–	0.267	1.225	0.639	0.479
GSEQTRQRGQNQQT	–	–	–	–	0.815	1.333	2.172	0.574
GSEQTRQSGQNQQT	–	–	–	–	0.900	1.321	0.514	0.734
GSEYGHKSGQNQQT	5.332	6.308	2.750	5.198	–	–	–	–
GSFSMGYGGQNQQT	–	–	–	–	1.030	1.393	18.476	1.908
GSFSMHTHGQNQQT	0.693	2.535	0.118	1.027	–	–	–	–
GSFYPSSTGQNQQT	0.277	2.047	2.374	0.420	–	–	–	–
